Reference: patent US8691855B2, “Compounds, isomer thereof, or pharmaceutically acceptable salts thereof as vanilloid receptor antagonist and pharmaceutical compositions containing the same” (Amorepacific Corporation, priority 2008, dated 2014)
pIC50: −log10 of the molar value.

Biological target: T1, vanilloid receptor (Rattus norvegicus, UniProt O35433)
T1 construct: DRG nerve cells from the primary culture of 2 days were equilibrated; endogenous in cells; host or cells: primary culture of dorsal root ganglion neurons from neonatal SD rats
Assay: 45Ca influx test (antagonist calcium uptake test) in rat DRG neurons stimulated with capsaicin
Format: cell-based
Settings: DRG neuron; @10 μM; neonatal SD rat DRG neurons; capsaicin 0.5 μM; read-out: Antagonist Calcium Uptake Test, percent inhibition of capsaicin response
Experimental: 1) Separation of spinal dorsal root ganglia (DRG) in newborn rats and primary culture thereof
Neonatal (2-3 clay old or younger than 2-3 day old) SD rats were put in ice for 5 minutes to anesthetize and disinfected with 70% ethanol. DRG of all part of spinal cord were dissected (Wood et al., 1988, J. Neurosci. 8, pp 3208-3220) and collected in DME/F12 medium to which 1.2 g/l sodium bicarbonate and 50 mg/l gentamycin were added. The DRG were incubated sequentially at 37° C. for 30 mins in 200 U/ml collagenase and 2.5 mg/ml trypsin, separately. The ganglia were washed twice with DME/F12 medium supplemented with 10% horse serum, triturated through a fire-polished Pasteur pipette, filtered through Nitex 80 membrane to obtain single cell suspension and the suspension was washed once more. This was subjected to centrifugation, then resuspended in cell culture medium at certain level of cell density. As the cell culture medium, DME/F12 medium supplemented with 10% horse serum was diluted with identical medium conditioned by C6 glioma cells 2 clays on a confluent monolayer (1:1), and NGF (Nerve Growth Factor) was added to adjust 200 ng/ml as final concentration. After the cells were grown 2 days in medium where cytosine arabinoside (Ara-C, 100 μM) was added to kill dividing nonneuronal cells, medium was changed to one without Ara-C. The resuspended cells were plated at a density of 1500-2000 neurons/well onto Terasaki plates previously coated with 10 μg/ml poly-D-ornithine.
2) ^45Ca Influx Experiments
DRG nerve cells from the primary culture of 2 days were equilibrated by washing 4 times with HEPES (10 mM, pH 7.4)-buffered Ca^2+, Mg^2+-free HBSS (H-HBSS). The solution in each well was removed from the individual well. Medium containing the test compound plus capsaicin (final concentration 0.5 μM) and ^45Ca (final concentration 10 μCi/ml) in H-HBSS was added to each well and incubated at room temperature for 10 nuns. Terasaki plates were washed five times with H-HBSS and dried at room temperature. To each well, 0.3% SDS (10 μl) was added to elute ^45Ca. After the addition of scintillation cocktail of into each well, the amount of ^45Ca influx into neuron was measured by counting radioactivity. Antagonistic activities of test compounds against vanilloid receptor were calculated as percent of the inhibition of maximal response of capsaicin at a concentration of 0.5 μM.

T1 sequence (O35433 whole entry): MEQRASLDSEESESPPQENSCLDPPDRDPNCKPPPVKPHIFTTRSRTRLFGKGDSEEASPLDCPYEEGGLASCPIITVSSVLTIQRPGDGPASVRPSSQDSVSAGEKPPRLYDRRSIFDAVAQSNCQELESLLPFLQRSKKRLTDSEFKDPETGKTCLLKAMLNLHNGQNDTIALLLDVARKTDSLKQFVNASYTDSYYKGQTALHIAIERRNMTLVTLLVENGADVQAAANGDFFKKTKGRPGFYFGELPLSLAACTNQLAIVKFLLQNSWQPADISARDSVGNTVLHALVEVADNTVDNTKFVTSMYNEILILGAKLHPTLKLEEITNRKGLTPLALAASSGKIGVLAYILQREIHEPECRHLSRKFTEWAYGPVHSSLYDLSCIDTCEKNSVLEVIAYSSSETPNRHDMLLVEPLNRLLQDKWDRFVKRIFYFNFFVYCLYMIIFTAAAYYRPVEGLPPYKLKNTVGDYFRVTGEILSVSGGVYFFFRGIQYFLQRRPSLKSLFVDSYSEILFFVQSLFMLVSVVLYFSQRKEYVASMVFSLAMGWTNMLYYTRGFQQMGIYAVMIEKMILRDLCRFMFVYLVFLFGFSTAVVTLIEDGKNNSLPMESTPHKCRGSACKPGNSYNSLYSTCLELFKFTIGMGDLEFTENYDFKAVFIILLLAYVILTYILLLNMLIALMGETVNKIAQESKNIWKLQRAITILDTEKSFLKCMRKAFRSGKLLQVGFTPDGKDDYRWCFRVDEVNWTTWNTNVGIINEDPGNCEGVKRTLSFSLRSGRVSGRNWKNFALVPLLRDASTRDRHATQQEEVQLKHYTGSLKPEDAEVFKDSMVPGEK

Row | inhibition at 10 µM | Compound
1 | 56% | CC(C)c1cccc(Oc2ccc(C(=O)N[C@H](C)c3cc(F)c(NS(C)(=O)=O)c(F)c3)s2)c1 [Example 21, 5-(3-Isopropyl-phenoxy)-thiophene-2-carboxylic acid [1-(3,5-difluoro-4-methanesulfonylamino-phenyl)-ethyl]-amide]

Same assay, conditions: neonatal SD rat DRG neurons; capsaicin 0.5 μM; 45Ca

Row | pIC50 | Compound
2 | 6.11 | C[C@@H](NC(=O)c1coc(Oc2cccc(Cl)c2)n1)c1cc(F)c(NS(C)(=O)=O)c(F)c1 [Example 16, 2-(3-Chloro-phenoxy)-oxazole-4-carboxylic acid [1-(3,5-difluoro-4-methanesulfonylamino-phenyl)-ethyl]-amide]
3 | < 5.00 | C[C@@H](NC(=O)c1coc(Oc2cccc(C#N)c2)n1)c1cc(F)c(NS(C)(=O)=O)c(F)c1 [Example 17, 2-(3-Cyano-phenoxy)-oxazole-4-carboxylic acid [1-(3,5-difluoro-4-methanesulfonylamino-phenyl)-ethyl]-amide]
4 | 5.54 | C[C@@H](NC(=O)c1coc(Oc2cccc([N+](=O)[O-])c2)n1)c1cc(F)c(NS(C)(=O)=O)c(F)c1 [Example 18, 2-(3-Nitro-phenoxy)-oxazole-4-carboxylic acid [1-(3,5-difluoro-4-methanesulfonylamino-phenyl)-ethyl]-amide]
5 | 6.21 | C[C@@H](NC(=O)c1coc(N2CCCC3CCCCC32)n1)c1cc(F)c(NS(C)(=O)=O)c(F)c1 (some centres unmarked) [Example 19, 2-(Octahydro-quinolin-1-yl)-oxazole-4-carboxylic acid [1-(3,5-difluoro-4-methanesulfonylamino-phenyl)-ethyl]-amide]
6 | 5.72 | C[C@@H](NC(=O)c1coc(Oc2ccc3c(c2)CCC3)n1)c1cc(F)c(NS(C)(=O)=O)c(F)c1 [Example 22, 2-(Indan-5-yloxy)-oxazole-4-carboxylic acid [1-(3,5-difluoro-4-methanesulfonylamino-phenyl)-ethyl]-amide]
7 | 4.92 | C[C@@H](NC(=O)c1coc(Oc2ccc3ncccc3c2)n1)c1cc(F)c(NS(C)(=O)=O)c(F)c1 [Example 23, 2-(Quinolin-6-yloxy)-oxazole-4-carboxylic acid [1-(3,5-difluoro-4-methanesulfonylamino-phenyl)-ethyl]-amide]
8 | < 5.00 | C[C@@H](NC(=O)c1coc(Oc2cccc3cccnc23)n1)c1cc(F)c(NS(C)(=O)=O)c(F)c1 [Example 24, 2-(Quinolin-8-yloxy)-oxazole-4-carboxylic acid [1-(3,5-difluoro-4-methanesulfonylamino-phenyl)-ethyl]-amide]
9 | < 5.00 | C[C@@H](NC(=O)c1coc(Oc2cc(C(F)(F)F)ccn2)n1)c1cc(F)c(NS(C)(=O)=O)c(F)c1 [Example 25, 2-(4-Trifluoromethyl-pyridin-2-yloxy)-oxazole-4-carboxylic acid [1-(3,5-difluoro-4-methanesulfonylamino-phenyl)-ethyl]-amide]
10 | < 5.00 | C[C@@H](NC(=O)c1coc(Oc2cccc(Cl)n2)n1)c1cc(F)c(NS(C)(=O)=O)c(F)c1 [Example 26]
11 | 5.80 | C#Cc1cccc(Oc2nc(C(=O)N[C@H](C)c3cc(F)c(NS(C)(=O)=O)c(F)c3)co2)c1 [Example 27, 2-(3-Ethynyl-phenoxy)-oxazole-4-carboxylic acid [1-(3,5-difluoro-4-methanesulfonylamino-phenyl)-ethyl]-amide]
12 | 6.09 | C=C1CCc2c(Oc3nc(C(=O)N[C@H](C)c4cc(F)c(NS(C)(=O)=O)c(F)c4)co3)cccc21 [Example 28, 2-(1-Methylene-indan-4-yloxy)-oxazole-4-carboxylic acid [1-(3,5-difluoro-4-methanesulfonylamino-phenyl)-ethyl]-amide]
13 | 6.55 | CCc1cccc(Oc2nc(C(=O)N[C@H](C)c3cc(F)c(NS(C)(=O)=O)c(F)c3)co2)c1 [Example 29, 2-(3-Ethyl-phenoxy)-oxazole-4-carboxylic acid [1-(3,5-difluoro-4-methanesulfonylamino-phenyl)-ethyl]-amide]
14 | 5.70 | CC(C)c1cccc(Oc2nc(C(=O)N[C@H](C)c3cc(F)c(NS(C)(=O)=O)c(F)c3)cs2)c1 [Example 31, 2-(3-Isopropyl-phenoxy)-thiazole-4-carboxylic acid [1-(3,5-difluoro-4-methanesulfonylamino-phenyl)-ethyl]-amide]
15 | 5.31 | CCCc1cc(C(F)(F)F)ccc1Oc1nc(C(=O)N[C@H](C)c2cc(F)c(NS(C)(=O)=O)c(F)c2)co1 [Example 33, 2-(2-Propyl-4-trifluoromethyl-phenoxy)-oxazole-4-carboxylic acid [1-(3,5-difluoro-4-methanesulfonylamino-phenyl)-ethyl]-amide]
16 | 5.89 | C[C@@H](NC(=O)c1coc(Oc2cc(C(F)(F)F)cc(C(F)(F)F)c2)n1)c1cc(F)c(NS(C)(=O)=O)c(F)c1 [Example 36, 2-(3,5-Bis-trifluoromethyl-phenoxy)-oxazole-4-carboxylic acid [1-(3,5-difluoro-4-methanesulfonylamino-phenyl)-ethyl]-amide]
17 | 6.39 | C=C1CCCc2c(Oc3nc(C(=O)N[C@H](C)c4cc(F)c(NS(C)(=O)=O)c(F)c4)co3)cccc21 [Example 37, 2-(5-Methylene-5,6,7,8-tetrahydro-naphthalen-1-yloxy)-oxazole-4-carboxylic acid [1-(3,5-difluoro-4-methanesulfonylamino-phenyl)-ethyl]-amide]
18 | 6.40 | CCC1CCc2c(Oc3nc(C(=O)N[C@H](C)c4cc(F)c(NS(C)(=O)=O)c(F)c4)co3)cccc21 (some centres unmarked) [Example 38, 2-(1-Ethyl-indan-4-yloxy)-oxazole-4-carboxylic acid [1-(3,5-difluoro-4-methanesulfonylamino-phenyl)-ethyl]-amide]
19 | 6.54 | CC1CCCc2c(Oc3nc(C(=O)N[C@H](C)c4cc(F)c(NS(C)(=O)=O)c(F)c4)co3)cccc21 (some centres unmarked) [Example 39, 2-(5-Methyl-5,6,7,8-tetrahydro-naphthalen-1-yloxy)-oxazole-4-carboxylic acid [1-(3,5-difluoro-4-methanesulfonylamino-phenyl)-ethyl]-amide]
20 | 5.96 | CC(C)c1cc(Oc2nc(C(=O)N[C@H](C)c3cc(F)c(NS(C)(=O)=O)c(F)c3)co2)cc(C(F)(F)F)c1 [Example 40, 2-(3-Isopropyl-5-trifluoromethyl-phenoxy)-oxazole-4-carboxylic acid [1-(3,5-difluoro-4-methanesulfonylamino-phenyl)-ethyl]-amide]
21 | 6.72 | CCCc1ccc(C(F)(F)F)cc1Oc1nc(C(=O)N[C@H](C)c2cc(F)c(NS(C)(=O)=O)c(F)c2)co1 [Example 41, 2-(2-Propyl-5-trifluoromethyl-phenoxy)-oxazole-4-carboxylic acid [1-(3,5-difluoro-4-methanesulfonylamino-phenyl)-ethyl]-amide]
22 | 6.02 | C=C(C)c1cc(Oc2nc(C(=O)N[C@H](C)c3cc(F)c(NS(C)(=O)=O)c(F)c3)co2)cc(C(F)(F)F)c1 [Example 43, 2-(3-Isopropenyl-5-trifluoromethyl-phenoxy)-oxazole-4-carboxylic acid [1-(3,5-difluoro-4-methanesulfonylamino-phenyl)-ethyl]-amide]
23 | 5.26 | C[C@@H](NC(=O)c1coc(Nc2cccc(C(F)(F)F)c2)n1)c1cc(F)c(NS(C)(=O)=O)c(F)c1 [Example 44, 2-(3-Trifluoromethyl-phenylamino)-oxazole-4-carboxylic acid [1-(3,5-difluoro-4-methanesulfonylamino-phenyl)-ethyl]-amide]
